Assay results from patent publication US7585859B2, “PDE4B inhibitors and uses therefor” (Plexxikon, Inc., priority 2004, dated 2009).
pIC50: −log10 of the molar value.

Experiments:
Format in all cases: biochemical
[1] = molecular target: T1, PDE4B: The catalytic domain of human PDE4B from S152-S528 (Homo sapiens, UniProt Q07343); test: PDE4 IC50 determination by Scintillation Proximity Assay, PDE4B; settings: Table 1B, Formula I compounds; read-out: IC50 PDE4B
T1 construct: His6 (N); thrombin cleavage site (N); made in house; host or cells: E. coli
T1 sequence (Q07343 with tags, fused parts or gaps): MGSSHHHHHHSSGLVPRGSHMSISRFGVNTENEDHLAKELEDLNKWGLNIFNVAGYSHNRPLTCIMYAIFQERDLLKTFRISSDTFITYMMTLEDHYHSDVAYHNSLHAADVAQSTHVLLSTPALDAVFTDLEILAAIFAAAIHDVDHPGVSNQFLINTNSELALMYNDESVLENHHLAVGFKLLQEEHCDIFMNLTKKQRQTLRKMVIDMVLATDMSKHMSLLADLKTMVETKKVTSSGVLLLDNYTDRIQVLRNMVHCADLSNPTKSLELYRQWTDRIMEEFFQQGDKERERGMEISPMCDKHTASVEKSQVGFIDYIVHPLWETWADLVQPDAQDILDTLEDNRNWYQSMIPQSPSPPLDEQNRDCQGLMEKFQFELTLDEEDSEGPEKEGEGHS
Procedure, shortened: (§1)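 Scintillation counts reflected [^3H]AMP captured on yttrium silicate SPA beads after enzyme hydrolysed [^3H]cAMP for 30 min at 30°. PDE4B was used at 80 ng/ml and PDE4D at 4 ng/ml. IC50 values came from non-linear regression.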

PDE4D = molecular target: T2, PDE4D (Homo sapiens, UniProt Q08499); test: PDE4 IC50 determination by Scintillation Proximity Assay, PDE4D; settings: Table 1B, Formula I compounds; read-out: IC50 PDE4D
T2 construct: PDE4D: The catalytic domain of human PDE4B from S3 16-V692; His6 (N); thrombin cleavage site (N); made in house; host or cells: E. coli
T2 sequence (Q08499 380-756): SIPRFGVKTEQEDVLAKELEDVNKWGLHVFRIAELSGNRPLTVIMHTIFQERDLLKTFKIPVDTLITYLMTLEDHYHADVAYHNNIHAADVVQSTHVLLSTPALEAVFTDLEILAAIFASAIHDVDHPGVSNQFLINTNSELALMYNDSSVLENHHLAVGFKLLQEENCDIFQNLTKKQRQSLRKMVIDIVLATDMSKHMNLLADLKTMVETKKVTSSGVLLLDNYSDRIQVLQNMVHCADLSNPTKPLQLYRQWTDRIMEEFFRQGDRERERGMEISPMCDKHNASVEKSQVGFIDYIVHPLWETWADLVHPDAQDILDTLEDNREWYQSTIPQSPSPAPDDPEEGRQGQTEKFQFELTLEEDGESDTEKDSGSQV
Procedure, shortened: as §1

[2] = molecular target: T3, full-length human PDE4B2 isozyme (Homo sapiens, UniProt Q07343); test: PDE4 IC50 determination by Scintillation Proximity Assay, PDE4B2; settings: Table 1B, Formula I compounds; read-out: IC50 PDE4B2
T3 construct: The full-length human PDE4B2 isozyme; His6 (N); TEV cleavage site (N); made in house; host or cells: baculovirus infected insect cells (unpurified lysate)
T3 sequence (Q07343 1-564 isoform Q07343-2): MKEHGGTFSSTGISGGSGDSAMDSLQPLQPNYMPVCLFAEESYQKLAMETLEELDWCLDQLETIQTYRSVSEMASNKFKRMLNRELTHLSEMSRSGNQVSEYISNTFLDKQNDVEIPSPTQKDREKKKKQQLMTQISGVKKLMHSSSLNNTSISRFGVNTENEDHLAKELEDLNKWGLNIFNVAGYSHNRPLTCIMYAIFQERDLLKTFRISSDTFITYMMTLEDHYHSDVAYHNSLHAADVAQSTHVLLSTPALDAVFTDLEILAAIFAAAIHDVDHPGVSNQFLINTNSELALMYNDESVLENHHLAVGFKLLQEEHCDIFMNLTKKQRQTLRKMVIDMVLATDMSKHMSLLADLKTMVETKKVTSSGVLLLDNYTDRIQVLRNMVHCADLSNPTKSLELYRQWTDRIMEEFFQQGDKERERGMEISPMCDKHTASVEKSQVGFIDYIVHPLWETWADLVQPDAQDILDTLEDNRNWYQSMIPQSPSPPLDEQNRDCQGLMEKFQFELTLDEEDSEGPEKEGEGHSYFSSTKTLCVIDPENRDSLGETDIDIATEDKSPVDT
Procedure, shortened: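 Unpurified His6-TEV-tagged full-length human PDE4B2 from baculovirus-infected insect cell lysate (2.5 μl of 50% glycerol stock/ml) hydrolysed [3H]cAMP in 50 mM Tris pH 7.5, 8.3 mM MgCl, 1.7 mM EGTA, 0.01% BSA for 30 min at 30°. Stopped with SPA beads in 18 mM ZnSO4; [3H]AMP scintillation counted, IC50 by non-linear regression.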

[3] = molecular target: T4, full-length human PDE4D5 isozyme (Homo sapiens, UniProt Q08499); test: PDE4 IC50 determination by Scintillation Proximity Assay, PDE4D5; settings: Table 1B, Formula I compounds; read-out: IC50 PDE4D5
T4 construct: The full-length human PDE4D5 isozyme; His6 (N); TEV cleavage site (N); made in house; host or cells: baculovirus infected insect cells (unpurified lysate)
T4 sequence (Q08499 1-745 isoform Q08499-6): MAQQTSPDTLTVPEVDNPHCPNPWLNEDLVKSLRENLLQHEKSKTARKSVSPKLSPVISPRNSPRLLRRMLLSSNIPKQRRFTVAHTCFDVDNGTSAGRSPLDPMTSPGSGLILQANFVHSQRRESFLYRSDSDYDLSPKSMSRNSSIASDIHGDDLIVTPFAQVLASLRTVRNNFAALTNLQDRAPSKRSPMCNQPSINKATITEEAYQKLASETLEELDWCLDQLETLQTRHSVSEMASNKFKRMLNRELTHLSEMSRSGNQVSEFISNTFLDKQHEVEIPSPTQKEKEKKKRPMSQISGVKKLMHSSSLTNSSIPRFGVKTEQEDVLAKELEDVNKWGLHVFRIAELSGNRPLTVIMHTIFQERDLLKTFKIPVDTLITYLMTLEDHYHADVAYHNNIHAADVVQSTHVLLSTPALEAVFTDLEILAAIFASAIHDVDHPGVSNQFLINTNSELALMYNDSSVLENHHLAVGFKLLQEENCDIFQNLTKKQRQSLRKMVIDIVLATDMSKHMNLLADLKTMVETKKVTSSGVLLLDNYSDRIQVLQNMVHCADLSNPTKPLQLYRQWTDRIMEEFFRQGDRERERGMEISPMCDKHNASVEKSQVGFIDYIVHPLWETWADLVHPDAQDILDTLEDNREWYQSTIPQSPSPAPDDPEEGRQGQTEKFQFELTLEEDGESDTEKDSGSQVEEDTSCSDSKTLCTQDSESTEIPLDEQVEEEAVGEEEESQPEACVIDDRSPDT
Protocol: IC50s were determined by Scintillation Proximity Assay (SPA). The principle of the assay is based on the fact that cAMP, the PDE4 substrate, binds weakly to Yittrium Silicate SPA beads, whereas AMP, the product of PDE4 hydrolysis binds strongly. Thus, the extent of PDE4 hydrolysis of a sample of [^3H]cAMP can be measured because only the
[^3H]AMP produced by PDE4 hydrolysis will bind to the SPA beads and produce a scintillation signal.
PDE4 enzymes used for IC50 assays were:
PDE4D5: The full-length human PDE4D5 isozyme with an N-terminal His6 tag (SEQ ID NO: 18) and TEV cleavage site expressed in baculovirus infected insect cells. The enzyme was not purified from the cell lysates, so enzyme concentrations were not determined. Enzyme was stored in 50% glycerol at −20°.
Compounds tested (see Tables 3B, 4B and 5A for compounds and results) were 3-fold serially diluted 11 times in DMSO from a starting concentration of 4 mM or 40 μM, depending on compound potency. 1 μl of each dilution was transferred into duplicate wells of a white polystyrene 384-well assay plate (Coming #3705). In addition to the compound dilutions, each assay plate contained control wells with 1 μl of DMSO (to define 0% enzyme inhibition) or 1 μl of 200 μM roflumilast (to define 100% enzyme inhibition). Using a Beckman FX robot, 10 μl of [^3H] cAMP (Amersham TRK559) at 2 mCi/ml in assay buffer (50 mM Tris, pH 7.5; 8.3 mM MgCl; 1.7 mM EGTA; 0.01% BSA) was transferred to each assay well. Next, 10 μl of PDE4 enzyme in assay buffer was added and the plates were shaken for 30 s. at 1000 rpm to start the cAMP hydrolysis reaction. The concentrations of enzyme used were: PDE4B, 80 ng/ml; PDE4D, 4 ng/ml; PDE4B2, 2.5 μl of 50% glycerol stock/ml; PDE4D5 0.083 μl of 50% glycerol stock/ml. Assay plates were covered and incubated for 30 min. at 30°. Reactions were stopped by robotic addition of 10 μl of 5 mg/ml SPA beads (Amersham RPNQ0013) in 18 mM ZnSO4. The assay plates were covered with clear plastic film, centrifuged for 1 min. at 1000 RPM to settle the SPA beads, and counted using a Wallac TriLux scintillation counter. IC50's were calculated from the raw assay data by non-linear regression curve fitting using the Assay Explorer software package from MDL.

pIC50 [1] | pIC50 (PDE4D) | pIC50 [2] | pIC50 [3] | SMILES
> 5.00 | > 5.00 | > 5.00 | > 5.00 | CCOC(=O)c1cc(C(=O)c2sc(NC3CCCC3)c(C#N)c2N)on1 [Compound 1-139, 5-(3-Amino-4-cyano-5-cyclopentylamino-thiophene-2-carbonyl)-isoxazole-3-carboxylic acid ethyl ester]
> 5.00 | > 5.00 | > 5.00 | > 5.00 | COc1ccc(C(=O)c2sc(Nc3cccc(C#N)c3)c(C#N)c2N)c(OC)c1 [Compound 1-155, 4-Amino-2-(3-cyano-phenylamino)-5-(2,4-dimethoxy-benzoyl)-thiophene-3-carbonitrile]
> 5.00 | < 5.00 | > 5.00 | < 5.00 | N#Cc1c(NC2CCCC2)sc(C(=O)c2cc(-c3ccc(Cl)c(Cl)c3)no2)c1N [Compound 1-172, 4-Amino-2-cyclopentylamino-5-[3-(3-4-dichloro-phenyl)-isoxazole-5-carbonyl]-thiophene-3-carbonitrile]
> 5.00 | > 5.00 | > 5.00 | > 5.00 | CSc1cccc(Nc2sc(C(=O)c3ccccc3Cl)c(N)c2C#N)c1 [Compound 1-180, 4-Amino-5-(2-chloro-benzoyl)-2-(3-methylsulfanyl-phenylamino)-thiophene-3-carbonitrile]
< 5.00 | < 5.00 | < 5.00 | < 5.00 | N#Cc1c(Nc2ccc(Oc3ccccc3)cc2)sc(C(=O)c2cc(-c3ccccc3)no2)c1N [Compound 1-187, 4-Amino-2-(4-phenoxy-phenylamino)-5-(3-phenyl-isoxazole-5-carbonyl)-thiophene-3-carbonitrile]
> 5.00 | > 5.00 | < 5.00 | < 5.00 | CCNC(=O)c1cc(C(=O)c2sc(NC3CCCC3)c(C#N)c2N)on1 [Compound 1-198, 5-(3-Amino-4-cyano-5-cyclopentylamino-thiophene-2-carbonyl)-isoxazole-3-carboxylic acid ethylamide]
< 5.00 | > 5.00 | < 5.00 | < 5.00 | CCOC(=O)c1c(NC2CCCC2)sc(C(=O)c2cc(-c3ccccc3)no2)c1N [Compound 1-200, 4-Amino-2-cyclopentylamino-5-(3-phenyl-isoxazole-5-carbonyl)-thiophene-3-carboxylic acid ethyl ester]
< 5.00 | < 5.00 | < 5.00 | < 5.00 | N#Cc1c(NC2CCCCC2)sc(C(=O)c2cc(-c3ccccc3)no2)c1N [Compound 1-204, 4-Amino-2-cyclohexylamino-5-(3-phenyl-isoxazole-5-carbonyl)-thiophene-3-carbonitrile]
< 5.00 | < 5.00 | < 5.00 | < 5.00 | N#Cc1c(NCC2CC2)sc(C(=O)c2cc(-c3ccccc3)no2)c1N [Compound 1-206, 4-Amino-2-(cyclopropylmethyl-amino)-5-(3-phenyl-isoxazole-5-carbonyl)-thiophene-3-carbonitrile]
< 5.00 | < 5.00 | > 5.00 | < 5.00 | N#Cc1c(Nc2ccco2)sc(C(=O)c2cc(-c3ccccc3)no2)c1N [Compound 1-208, 4-Amino-2-(furan-2-ylamino)-5-(3-phenyl-isoxazole-5-carbonyl)-thiophene-3-carbonitrile]
> 5.00 | > 5.00 | > 5.00 | > 5.00 | N#Cc1c(NC2CCCO2)sc(C(=O)c2cc(-c3ccccc3)no2)c1N (stereo not drawn) [Compound 1-210, 4-Amino-5-(3-phenyl-isoxazole-5-carbonyl)-2-(tetrahydro-furan-2-ylamino)-thiophene-3-carbonitrile]
> 5.00 | > 5.00 | > 5.00 | > 5.00 | N#Cc1c(NC2CCCC2)sc(C(=O)c2cc(-c3c(Cl)cccc3Cl)no2)c1N [Compound 1-211, 4-Amino-2-cyclopentylamino-5-[3-(2,6-dichloro-phenyl)-isoxazole-5-carbonyl]-thiophene-3-carbonitrile]
> 5.00 | > 5.00 | < 5.00 | < 5.00 | N#Cc1c(NCCN2CCOCC2)sc(C(=O)c2cc(-c3ccccc3)no2)c1N [Compound 1-213, 4-Amino-2-(2-morpholin-4-yl-ethylamino)-5-(3-phenyl-isoxazole-5-carbonyl)-thiophene-3-carbonitrile]
< 5.00 | < 5.00 | < 5.00 | < 5.00 | N#Cc1c(NCc2cccc(Cl)c2)sc(C(=O)c2cc(-c3ccccc3)no2)c1N [Compound 1-214, 4-Amino-2-(3-chloro-benzylamino)-5-(3-phenyl-isoxazole-5-carbonyl)-thiophene-3-carbonitrile]
> 5.00 | > 5.00 | > 5.00 | > 5.00 | N#Cc1c(NC2CCCC2)sc(C(=O)c2nc3ccccc3s2)c1N [Compound 1-215, 4-Amino-5-(benzothiazole-2-carbonyl)-2-cyclopentylamino-thiophene-3-carbonitrile]
< 5.00 | < 5.00 | < 5.00 | < 5.00 | COc1cccc(CNc2sc(C(=O)c3cc(-c4ccccc4)no3)c(N)c2C#N)c1 [Compound 1-216]
> 5.00 | > 5.00 | > 5.00 | > 5.00 | CC(C)(C)Nc1sc(C(=O)c2cc(-c3ccccc3)no2)c(N)c1C#N [Compound 1-224, 4-Amino-2-tert-butylamino-5-(3-phenyl-isoxazole-5-carbonyl)-thiophene-3-carbonitrile]
< 5.00 | < 5.00 | < 5.00 | < 5.00 | CC(C)CNc1sc(C(=O)c2cc(-c3ccc(Cl)c(Cl)c3)no2)c(N)c1C#N [Compound 1-226, 4-Amino-5-[3-(3,4-dichloro-phenyl)-isoxazole-5-carbonyl]-2-isobutylamino-thiophene-3-carbonitrile]
> 5.00 | > 5.00 | < 5.00 | < 5.00 | N#Cc1c(NC2CCCC2)sc(C(=O)c2cc(-c3ccc(Cl)cc3Cl)no2)c1N [Compound 1-227, 4-Amino-2-cyclopentylamino-5-[3-(2,4-dichloro-phenyl)-isoxazole-5-carbonyl]-thiophene-3-carbonitrile]
> 5.00 | > 5.00 | < 5.00 | < 5.00 | CCC(CC)Nc1sc(C(=O)c2cc(-c3ccccc3)no2)c(N)c1C#N [Compound 1-228, 4-Amino-2-(1-ethyl-propylamino)-5-(3-phenyl-isoxazole-5-carbonyl)-thiophene-3-carbonitrile]
> 5.00 | > 5.00 | > 5.00 | > 5.00 | CC(C)CNc1sc(C(=O)c2ccc(Oc3ccccc3)cc2)c(N)c1C#N [Compound 1-233, 4-Amino-2-isobutylamino-5-(4-phenoxy-benzoyl)-thiophene-3-carbonitrile]
